Laboratory results taken from publication PMC8159961, “Exploring protein hotspots by optimized fragment pharmacophores” (Nature Communications, 2021).

Assays:
human 5-HT7b receptor = target: T1, human 5-HT7b receptor (Homo sapiens, UniProt P34969); assay: GPCR radioligand binding assay, [3H]-5-CT displacement, HEK293 membranes; settings: for 5-HT7 % Inhibition by plate position: 10 µM; for %inh 5-HT7 exp_1: replicate exp_1; for %inh 5-HT7 exp_2: replicate exp_2; for %inh 5-HT7 average: average of exp_1 and exp_2
T1 construct: expressed in transfected cells

human 5-HT6 receptor = target: T2, human 5-HT6 receptor (Homo sapiens, UniProt P50406); assay: GPCR radioligand binding assay, [3H]-LSD displacement, HEK293 membranes; settings: for 5-HT6 % Inhibition by plate position: 10 µM; for %inh 5-HT6 average: average of exp_1 and exp_2; for %inh 5-HT6 corrected*: average, values below 0 and above 100% were set as 0 and 100; for %inh 5-HT6 exp_1: replicate exp_1; for %inh 5-HT6 exp_2: replicate exp_2
T2 construct: expressed in transfected cells

human 5-HT1A receptor = target: T3, human 5-HT1A receptor (Homo sapiens, UniProt P08908); assay: GPCR radioligand binding assay, [3H]-8-OH-DPAT displacement, HEK293 membranes; settings: for %inh 5-HT1A average: average of exp_1 and exp_2; for %inh 5-HT1A corrected*: average, values below 0 and above 100% were set as 0 and 100; for %inh 5-HT1A exp_1: replicate exp_1; for %inh 5-HT1A exp_2: replicate exp_2; for 5-HT1A % Inhibition by plate position: 10 µM
T3 construct: expressed in transfected cells
T3 sequence (P08908 1-422): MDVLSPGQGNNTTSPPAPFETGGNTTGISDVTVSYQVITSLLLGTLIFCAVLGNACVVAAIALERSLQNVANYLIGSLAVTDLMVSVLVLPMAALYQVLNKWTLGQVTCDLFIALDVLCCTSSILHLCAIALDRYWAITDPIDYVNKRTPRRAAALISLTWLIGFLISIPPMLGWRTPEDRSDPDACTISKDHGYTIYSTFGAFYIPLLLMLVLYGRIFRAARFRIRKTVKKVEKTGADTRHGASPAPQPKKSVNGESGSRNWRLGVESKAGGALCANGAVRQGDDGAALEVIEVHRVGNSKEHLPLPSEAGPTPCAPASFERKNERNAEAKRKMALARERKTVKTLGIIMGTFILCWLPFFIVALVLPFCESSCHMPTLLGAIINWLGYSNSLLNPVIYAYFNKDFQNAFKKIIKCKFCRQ

T2 sequence (P50406 whole entry): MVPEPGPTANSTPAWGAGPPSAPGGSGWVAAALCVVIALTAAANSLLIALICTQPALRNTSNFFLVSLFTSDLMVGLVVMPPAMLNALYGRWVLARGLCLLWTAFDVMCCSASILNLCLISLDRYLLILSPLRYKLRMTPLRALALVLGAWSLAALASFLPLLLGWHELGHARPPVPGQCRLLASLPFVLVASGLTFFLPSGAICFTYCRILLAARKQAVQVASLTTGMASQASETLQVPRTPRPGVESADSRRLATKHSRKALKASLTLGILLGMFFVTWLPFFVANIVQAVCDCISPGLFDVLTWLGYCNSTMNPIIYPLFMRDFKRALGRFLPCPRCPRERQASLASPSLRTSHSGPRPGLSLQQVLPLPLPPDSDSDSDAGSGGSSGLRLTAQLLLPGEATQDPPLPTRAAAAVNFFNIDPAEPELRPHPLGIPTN
T1 sequence (P34969 1-432): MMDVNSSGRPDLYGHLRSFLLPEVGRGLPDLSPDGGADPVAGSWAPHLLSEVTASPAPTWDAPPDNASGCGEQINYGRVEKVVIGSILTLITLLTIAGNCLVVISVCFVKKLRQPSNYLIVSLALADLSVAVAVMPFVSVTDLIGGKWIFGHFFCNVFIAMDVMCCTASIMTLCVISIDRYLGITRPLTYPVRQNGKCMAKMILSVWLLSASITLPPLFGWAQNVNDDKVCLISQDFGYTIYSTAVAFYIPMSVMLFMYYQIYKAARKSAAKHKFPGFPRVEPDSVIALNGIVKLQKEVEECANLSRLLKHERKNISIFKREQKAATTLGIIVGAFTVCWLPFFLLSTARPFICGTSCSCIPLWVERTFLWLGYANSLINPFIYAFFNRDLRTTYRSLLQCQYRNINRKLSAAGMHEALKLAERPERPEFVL

In the case of `COC(=O)c1c(C)nc(C2CC2)[nH]c1=O` [F1], the “5-HT7 % Inhibition by plate position” value (human 5-HT7b receptor) was 23%, the “%inh 5-HT7 exp_1” value (human 5-HT7b receptor) was 23% and the “%inh 5-HT7 exp_2” value (human 5-HT7b receptor) was 22%. The “5-HT6 % Inhibition by plate position” value (human 5-HT6 receptor) was 41%, the “%inh 5-HT6 average” value (human 5-HT6 receptor) was 41% and the “%inh 5-HT6 corrected*” value (human 5-HT6 receptor) was 41%. The “%inh 5-HT6 exp_1” value (human 5-HT6 receptor) was 38%, the “%inh 5-HT6 exp_2” value (human 5-HT6 receptor) was 44% and the “%inh 5-HT1A average” value (human 5-HT1A receptor) was 16%. The “%inh 5-HT1A corrected*” value (human 5-HT1A receptor) was 16%, the “%inh 5-HT1A exp_1” value (human 5-HT1A receptor) was 17% and the “%inh 5-HT1A exp_2” value (human 5-HT1A receptor) was 15%.

With `Cc1ccc(C)n1Cc1ccccc1Cl` [D6] the “5-HT7 % Inhibition by plate position” value (human 5-HT7b receptor) was 0%, the “%inh 5-HT7 average” value (human 5-HT7b receptor) was -5.55% and the “%inh 5-HT7 exp_1” value (human 5-HT7b receptor) was -2.55%. For the same compound, the “%inh 5-HT7 exp_2” value (human 5-HT7b receptor) was -8.54%, the “5-HT6 % Inhibition by plate position” value (human 5-HT6 receptor) was 26% and the “%inh 5-HT6 average” value (human 5-HT6 receptor) was 26%. The “%inh 5-HT6 corrected*” value (human 5-HT6 receptor) was 26%, the “%inh 5-HT6 exp_1” value (human 5-HT6 receptor) was 30% and the “%inh 5-HT6 exp_2” value (human 5-HT6 receptor) was 23%. For the same compound, the “%inh 5-HT1A average” value (human 5-HT1A receptor) was 6.37%, the “%inh 5-HT1A corrected*” value (human 5-HT1A receptor) was 6.37% and the “%inh 5-HT1A exp_1” value (human 5-HT1A receptor) was 4.33%. The “%inh 5-HT1A exp_2” value (human 5-HT1A receptor) was 8%.

In the case of `Cc1cc(C)c2c(=O)[nH]n(C)c2n1` [F12], the “5-HT7 % Inhibition by plate position” value (human 5-HT7b receptor) was 11%, the “%inh 5-HT7 exp_1” value (human 5-HT7b receptor) was 14% and the “%inh 5-HT7 exp_2” value (human 5-HT7b receptor) was 7%. The “5-HT6 % Inhibition by plate position” value (human 5-HT6 receptor) was 34%, the “%inh 5-HT6 average” value (human 5-HT6 receptor) was 34% and the “%inh 5-HT6 corrected*” value (human 5-HT6 receptor) was 34%. The “%inh 5-HT6 exp_1” value (human 5-HT6 receptor) was 35%, the “%inh 5-HT6 exp_2” value (human 5-HT6 receptor) was 32% and the “%inh 5-HT1A average” value (human 5-HT1A receptor) was 5.64%. For the same compound, the “%inh 5-HT1A corrected*” value (human 5-HT1A receptor) was 5.64%, the “%inh 5-HT1A exp_1” value (human 5-HT1A receptor) was 4.73% and the “%inh 5-HT1A exp_2” value (human 5-HT1A receptor) was 6.55%.

With `COc1cccc(NC2=NCCCCC2)c1` [E8] the “5-HT7 % Inhibition by plate position” value (human 5-HT7b receptor) was 0%, the “%inh 5-HT7 average” value (human 5-HT7b receptor) was -5% and the “%inh 5-HT7 exp_1” value (human 5-HT7b receptor) was 3.36%. The “%inh 5-HT7 exp_2” value (human 5-HT7b receptor) was -13%, the “5-HT6 % Inhibition by plate position” value (human 5-HT6 receptor) was 14% and the “%inh 5-HT6 average” value (human 5-HT6 receptor) was 14%. For the same compound, the “%inh 5-HT6 corrected*” value (human 5-HT6 receptor) was 14%, the “%inh 5-HT6 exp_1” value (human 5-HT6 receptor) was 17% and the “%inh 5-HT6 exp_2” value (human 5-HT6 receptor) was 12%. The “%inh 5-HT1A average” value (human 5-HT1A receptor) was 11%, the “%inh 5-HT1A corrected*” value (human 5-HT1A receptor) was 11% and the “%inh 5-HT1A exp_1” value (human 5-HT1A receptor) was 11%. For the same compound, the “%inh 5-HT1A exp_2” value (human 5-HT1A receptor) was 11%.

With `O=C(NC1CC1)c1ccccc1O` [G4] the “5-HT7 % Inhibition by plate position” value (human 5-HT7b receptor) was 0%, the “%inh 5-HT7 average” value (human 5-HT7b receptor) was -12% and the “%inh 5-HT7 exp_1” value (human 5-HT7b receptor) was 1.81%. For the same compound, the “%inh 5-HT7 exp_2” value (human 5-HT7b receptor) was -25%, the “5-HT6 % Inhibition by plate position” value (human 5-HT6 receptor) was 24% and the “%inh 5-HT6 average” value (human 5-HT6 receptor) was 24%. The “%inh 5-HT6 corrected*” value (human 5-HT6 receptor) was 24%, the “%inh 5-HT6 exp_1” value (human 5-HT6 receptor) was 28% and the “%inh 5-HT6 exp_2” value (human 5-HT6 receptor) was 20%. For the same compound, the “%inh 5-HT1A average” value (human 5-HT1A receptor) was 1.71%, the “%inh 5-HT1A corrected*” value (human 5-HT1A receptor) was 1.71% and the “%inh 5-HT1A exp_1” value (human 5-HT1A receptor) was 3.42%. For the same compound, the “%inh 5-HT1A exp_2” value (human 5-HT1A receptor) was 0%.

In the case of `Oc1nnc(-c2ccccc2)o1` [F7], the “5-HT7 % Inhibition by plate position” value (human 5-HT7b receptor) was 1%, the “%inh 5-HT7 exp_1” value (human 5-HT7b receptor) was -12% and the “%inh 5-HT7 exp_2” value (human 5-HT7b receptor) was 14%. The “5-HT6 % Inhibition by plate position” value (human 5-HT6 receptor) was 14%, the “%inh 5-HT6 average” value (human 5-HT6 receptor) was 14% and the “%inh 5-HT6 corrected*” value (human 5-HT6 receptor) was 14%. The “%inh 5-HT6 exp_1” value (human 5-HT6 receptor) was 15%, the “%inh 5-HT6 exp_2” value (human 5-HT6 receptor) was 14% and the “5-HT1A % Inhibition by plate position” value (human 5-HT1A receptor) was 0%. For the same compound, the “%inh 5-HT1A average” value (human 5-HT1A receptor) was -4%, the “%inh 5-HT1A exp_1” value (human 5-HT1A receptor) was 1.6% and the “%inh 5-HT1A exp_2” value (human 5-HT1A receptor) was -10%.

In the case of `O=C1CCCc2occc21` [B3], the “5-HT7 % Inhibition by plate position” value (human 5-HT7b receptor) was 0%, the “%inh 5-HT7 average” value (human 5-HT7b receptor) was -2.76% and the “%inh 5-HT7 exp_1” value (human 5-HT7b receptor) was 8%. The “%inh 5-HT7 exp_2” value (human 5-HT7b receptor) was -14%, the “5-HT6 % Inhibition by plate position” value (human 5-HT6 receptor) was 34% and the “%inh 5-HT6 average” value (human 5-HT6 receptor) was 34%. For the same compound, the “%inh 5-HT6 corrected*” value (human 5-HT6 receptor) was 34%, the “%inh 5-HT6 exp_1” value (human 5-HT6 receptor) was 37% and the “%inh 5-HT6 exp_2” value (human 5-HT6 receptor) was 30%. For the same compound, the “5-HT1A % Inhibition by plate position” value (human 5-HT1A receptor) was 0%, the “%inh 5-HT1A average” value (human 5-HT1A receptor) was -4.51% and the “%inh 5-HT1A exp_1” value (human 5-HT1A receptor) was -9%. For the same compound, the “%inh 5-HT1A exp_2” value (human 5-HT1A receptor) was 0%.

For `O=c1[nH]c2c(s1)CCC2` [C10], the “5-HT7 % Inhibition by plate position” value (human 5-HT7b receptor) was 0.592%, the “%inh 5-HT7 exp_1” value (human 5-HT7b receptor) was -6.56% and the “%inh 5-HT7 exp_2” value (human 5-HT7b receptor) was 8%. For the same compound, the “5-HT6 % Inhibition by plate position” value (human 5-HT6 receptor) was 42%, the “%inh 5-HT6 average” value (human 5-HT6 receptor) was 42% and the “%inh 5-HT6 corrected*” value (human 5-HT6 receptor) was 42%. The “%inh 5-HT6 exp_1” value (human 5-HT6 receptor) was 44%, the “%inh 5-HT6 exp_2” value (human 5-HT6 receptor) was 39% and the “5-HT1A % Inhibition by plate position” value (human 5-HT1A receptor) was 0%. The “%inh 5-HT1A average” value (human 5-HT1A receptor) was -4%, the “%inh 5-HT1A exp_1” value (human 5-HT1A receptor) was 2.56% and the “%inh 5-HT1A exp_2” value (human 5-HT1A receptor) was -11%.

`O=C(CN1CCNCC1)c1ccccc1` [E5] was tested, and the “5-HT7 % Inhibition by plate position” value (human 5-HT7b receptor) was 8%, the “%inh 5-HT7 exp_1” value (human 5-HT7b receptor) was 14% and the “%inh 5-HT7 exp_2” value (human 5-HT7b receptor) was 3%. The “5-HT6 % Inhibition by plate position” value (human 5-HT6 receptor) was 49%, the “%inh 5-HT6 average” value (human 5-HT6 receptor) was 49% and the “%inh 5-HT6 corrected*” value (human 5-HT6 receptor) was 49%. The “%inh 5-HT6 exp_1” value (human 5-HT6 receptor) was 45%, the “%inh 5-HT6 exp_2” value (human 5-HT6 receptor) was 54% and the “%inh 5-HT1A average” value (human 5-HT1A receptor) was 6%. For the same compound, the “%inh 5-HT1A corrected*” value (human 5-HT1A receptor) was 6%, the “%inh 5-HT1A exp_1” value (human 5-HT1A receptor) was 9.52% and the “%inh 5-HT1A exp_2” value (human 5-HT1A receptor) was 3%.

In the case of `CCc1ccc(NC2=NCCCS2)cc1` [D2], the “5-HT7 % Inhibition by plate position” value (human 5-HT7b receptor) was 6%, the “%inh 5-HT7 exp_1” value (human 5-HT7b receptor) was 12% and the “%inh 5-HT7 exp_2” value (human 5-HT7b receptor) was 0.291%. For the same compound, the “5-HT6 % Inhibition by plate position” value (human 5-HT6 receptor) was 16%, the “%inh 5-HT6 average” value (human 5-HT6 receptor) was 16% and the “%inh 5-HT6 corrected*” value (human 5-HT6 receptor) was 16%. For the same compound, the “%inh 5-HT6 exp_1” value (human 5-HT6 receptor) was 19%, the “%inh 5-HT6 exp_2” value (human 5-HT6 receptor) was 13% and the “%inh 5-HT1A average” value (human 5-HT1A receptor) was 29%. The “%inh 5-HT1A corrected*” value (human 5-HT1A receptor) was 29%, the “%inh 5-HT1A exp_1” value (human 5-HT1A receptor) was 30% and the “%inh 5-HT1A exp_2” value (human 5-HT1A receptor) was 27%.

`COc1ccccc1C1CCNCC1` [A11] was tested, and the “5-HT7 % Inhibition by plate position” value (human 5-HT7b receptor) was 73%, the “%inh 5-HT7 exp_1” value (human 5-HT7b receptor) was 64% and the “%inh 5-HT7 exp_2” value (human 5-HT7b receptor) was 81%. The “5-HT6 % Inhibition by plate position” value (human 5-HT6 receptor) was 71%, the “%inh 5-HT6 average” value (human 5-HT6 receptor) was 71% and the “%inh 5-HT6 corrected*” value (human 5-HT6 receptor) was 71%. The “%inh 5-HT6 exp_1” value (human 5-HT6 receptor) was 82%, the “%inh 5-HT6 exp_2” value (human 5-HT6 receptor) was 59% and the “%inh 5-HT1A average” value (human 5-HT1A receptor) was 99%. The “%inh 5-HT1A corrected*” value (human 5-HT1A receptor) was 99%, the “%inh 5-HT1A exp_1” value (human 5-HT1A receptor) was 100% and the “%inh 5-HT1A exp_2” value (human 5-HT1A receptor) was 98%.
